Measured values reported in patent publication US20190322638A1, “DIPYRIDYL ALKALOID, PREPARATION METHOD THEREFOR AND USE THEREOF” (OCEAN UNIVERSITY OF CHINA, priority 2016, published 2019).
Read-outs that look alike come from different tables or passages of the source.

Legend:
[1] = Toxicity to normal cells, MTT method; type: cell-based; details: human, L-02 cell line
Protocol: (§1) Cell lines and subculture of cells: The following five tumor cell lines were used for activity test human colon cancer cell lines (HCT-116 cells), human hepatoma cell lines (HepG2 cells), human breast cancer cell lines (MCF-7 cells), cervical cancer cell lines (Hela cells), human peripheral blood leukemia T cell lines (Jurkat cells), and human normal liver cell lines (L-02 cells), of which MCF-7, HepG2, Hela, and L-02 cell lines were tested using the MTT model; HCT-116 cell lines were tested using the SRB model. All of the cells were subcultured in a 10% FBS-containing RPMI-1640 medium in an incubator charged with 5% carbon dioxide at 37° C.
(§2) MTT method: Dehydrogenase in mitochondria in live cells was capable of metabolizing yellow bromized 3-(4,5-dimethylthiazole)-2,5-diphenyltetrazolium into ianthinus water-insoluble formazan, and an amount of formazan could be determined by measuring the absorbance thereof with a microplate reader. Since the amount of formazan was directly proportional to the number of live cells, the number of live cells could be determined from the absorbance to learn about the drug's capability of inhibiting or killing tumor cells. […] The cell suspension was inoculated to a 96-well plate at 100 μL per well, and cultured at 37° C. for 24 hours. Thereafter, 100 μL of the sample solutions at different concentrations were added to respective wells and continued to be cultured for 72 hours. Then, 20 μL of MTT-containing IPMI-1640 solution ([…]) was added. After further cultivation for 4 hours, the culture solutions were slowly decanted and 150 μL of DMSO was added to dissolve the formazan, and the absorbance was measured at a wavelength of 540 nm. […] The half inhibitory concentration against cancer cells (IC50) and the half inhibitory concentration against normal cells (CC50) were determined.

[2] = system: human colon cancer cell lines (HCT-116 cells); assay: In vitro antitumor activity, SRB method; type: cell-based; details: for SI = CC50 (normal cell line L-02)/IC50 (tumor cell line): HCT-116 cell line vs L-02; for IC50: Homo sapiens, read-out: Cytotoxic Activity IC50
Protocol: as §1
SRB method: According to the cell growth rate, tumor cells at the logarithmic phase (medium: RPMI-1640 medium containing 10% newborn fetal bovine serum (FBS); cell density: 3×10^4 cells/mL) were inoculated into a 96-well culture plate at 180 μL/well, and subjected to adherent growth for 24 hours at 37° C. under 5% CO2. Subsequently, a test sample was added at 20 μL/well, and four duplicated wells were provided at each concentration. […] The culture solution was decanted, and the cells were fixed with 10% cold trichloroacetic acid (TCA), allowed to stand at 4° C. for 1 hour, and then washed 5 times with distilled water and dried in the air. Thereafter, 100 μL/well of a 4 mg/ml solution of sulforhodamine B (SRB, Sigma) formulated by 1% glacial acetic acid was added, and the mixture was stained at a room temperature for 15 minutes, and the supernatant was removed, washed 5 times with 1% acetic acid, and dried in the air. Finally, 150 μL/well of Tris solution was added, and the absorbance (OD value) was measured with a microplate reader at a wavelength of 540 nm. […] The half inhibitory concentration against cancer cells (IC50) was determined.
(§3) Selection Index (SI) is the ratio of the CC50 value of a test sample inhibiting the growth of normal cell lines to the IC50 value of the test sample inhibiting tumor cell proliferation, which reflects the selectivity and safety of the sample.
(§4) SI=CC50(normal cell line L-02)/IC50(tumor cell line) Equation: […]

[3] = system: cervical cancer cell lines (Hela cells); assay: In vitro antitumor activity, MTT method; type: cell-based; details: for SI = CC50 (normal cell line L-02)/IC50 (tumor cell line): Hela cell line vs L-02; for IC50: Homo sapiens, read-out: Cytotoxic Activity IC50
Protocol: as §1, §2, §3, §4

[4] = system: human hepatoma cell lines (HepG2 cells); assay: In vitro antitumor activity, MTT method; type: cell-based; details: for SI = CC50 (normal cell line L-02)/IC50 (tumor cell line): HepG2 cell line vs L-02; for IC50: Homo sapiens, read-out: Cytotoxic Activity IC50
Protocol: as §1, §2, §3, §4

[5] = system: human peripheral blood leukemia T cell lines (Jurkat cells); assay: In vitro antitumor activity, Jurkat cells; type: cell-based; details: for IC50: Homo sapiens, read-out: Cytotoxic Activity IC50; for SI = CC50 (normal cell line L-02)/IC50 (tumor cell line): Jurkat cell line vs L-02
Protocol: as §1, §3, §4

[6] = system: human breast cancer cell lines (MCF-7 cells); assay: In vitro antitumor activity, MTT method; type: cell-based; details: for IC50: Homo sapiens, read-out: Cytotoxic Activity IC50; for SI = CC50 (normal cell line L-02)/IC50 (tumor cell line): MCF-7 cell line vs L-02
Protocol: as §1, §2, §3, §4

[7] = system: colon cancer HCT-116 transplantation tumors; assay: In vivo antitumor test on transplantation tumors in nude mice; set-up: species or system BALB/C (nu/nu) nude mice; details: HCT-116, 14 days, Docetaxel 5 mg/kg intravenously every other day, Compound 2 7.5 mg/kg intraperitoneally daily; for Tumor Weight: X ± S; for Inhibition Rate % (tumor inhibition rate): vs negative control
Protocol: An in vivo antitumor test for Compound 2 was conducted on in vivo transplantation tumors from nude mice experiencing colon cancer HCT-116.
Laboratory mice: BALB/C, (nu/nu) nude mice, from 18 to 20 g in weight, male; purchased from BEIJING HFK BIOSCIENCE Co., LTD.; License No.: SCXK (Jing)-2014-0004.
Positive drug: Docetaxel, dissolved with Tween DMSO as a solvent and formulated into 9 mg/mL solution for service; diluted with normal saline.
Test drug: Compound 2, 10 mg/mL of stock solution being dissolved with DMSO, diluted with normal saline till the concentration was 0.75 mg/mL, and the administration volume was 0.1 mL/10 g body weight.
(§5) A cell suspension of human colon cancer cell line HCT-116 at a concentration of 30 million/mL was formulated in a 5 A medium containing 10% fetal bovine serum. After conventional disinfection, the cell suspension was inoculated subcutaneously into the armpits of the right forelimbs of the mice at a dose of 0.2 ml for each. The mice were not administered until the tumors had grown to an average volume of about 100 mm^3. Positive drugs, compounds, and negative control groups were arranged. The dosages were 5 mg/kg of Docetaxel (positive), and 7.5 mg/kg of Compound 2. Routes of administration were as follows: Docetaxel was intravenously administered every other day; Compound 2 was intraperitoneally injected daily; the negative control group was intraperitoneally injected with isometric normal saline. The mice were administered for 14 days, during which the mice were weighed daily and the variation trends of body weights of the mice were calculated. The mice were killed 24 hours after the last administration. Their tumor tissues were dissected, the tumor mass was weighed, and the tumor inhibition rate was calculated. The equation for calculating the tumor inhibition rate was as follows: […]
(§6) Statistical analysis: The SPSS 13.0 statistical software was used for data processing. The resulting data were marked with X±S. The data from each group were analyzed by t test, and the P value was used to indicate difference between groups.

[8] = Spleen index, body weight and behavioral observation of mice in the in vivo antitumor test; set-up: species or system BALB/C (nu/nu) nude mice; details: nude mice; for effect on body weight of the mice / effect on spleen index of mice (in words): 14 days administration; for Spleen Index (100 × spleen mass/body mass): 14 days, Docetaxel (10 mg/kg as printed in Table 11), Compound 2 7.5 mg/kg
Protocol: as §5, with “The dosages were 5 mg/kg of Docetaxel (positive), and 7.5 mg/kg of Compound 2.” left out
In the meantime, the spleens were removed from the mice, and the capsules were peeled off. The mass of the spleens of the mice was recorded respectively, and the spleen indices were calculated by the following equation:
spleen index=100×spleen mass/body mass.
as §6

[9] = HCT-116 cell line, SRB, 72 hours

| Structure (SMILES) | CC50 at 72 h ([1]; L-02 normal liver cells) [µM] | SI = CC50 (normal cell line L-02)/IC50 (tumor cell line) [2] | IC50 [2, 9] [µM] | SI = CC50 (normal cell line L-02)/IC50 (tumor cell line) [3] | IC50 ([3]; Hela cell line, MTT, 72 hours) [µM] | SI = CC50 (normal cell line L-02)/IC50 (tumor cell line) [4] | IC50 ([5]; Jurkat cell line) [µM] | SI = CC50 (normal cell line L-02)/IC50 (tumor cell line) [5] | other results |
| --- | --- | --- | --- | --- | --- | --- | --- | --- | --- |
| C[C@@H]1O[C@@H](Oc2cc(/C=N/O)nc(-c3ccccn3)c2)[C@H](O)[C@H](O)[C@H]1O [Compound 1] | 28.3 | 40.4 | 0.7 | 3.1 | 9 | 10.5 | 10.8 | 2.6 | IC50 ([4]; HepG2 cell line, MTT, 72 hours): 2.7 µM |
| COc1cc(/C=N/O)nc(-c2ccccn2)c1 [Compound 2] |  | 13.0 |  | 39 |  | 19.5 |  | 19.5 | CC50 at 72 h [1]: 3.9 µM; IC50 ([2]; HCT-116, 72 h): 0.3 µM; IC50 ([3]; HeLa, 72 h): 0.1 µM; IC50 ([6]; MCF7, 72 h): 1 µM; SI = CC50 (normal cell line L-02)/IC50 (tumor cell line) [6]: 3.9; IC50 ([4]; HepG2, 72 h): 0.2 µM; IC50 ([5]; Jurkat): 0.2 µM; Tumor Weight [7]: 0.59 ± 0.33 g; Inhibition Rate % (tumor inhibition rate) [7]: 42.46%; effect on body weight of the mice [8]: not adversely affected; effect on spleen index of mice (in words) [8]: no effect; Spleen Index (100 × spleen mass/body mass) [8]: 0.45 ± 0.09; behavioral observation: adverse effects ([8]; within 14 days after administration, 7.5 mg/kg intraperitoneally daily): no obvious adverse effects such as allergy were observed |
| COc1cc(C=O)nc(-c2ccccn2)c1 [Compound 6] | 31.4 | 5.2 | 6 | 1.6 | 19.3 |  | 14.5 | 2.2 | IC50 ([6]; MCF7, MCF-7 cell line, MTT, 72 hours): 12 µM; SI = CC50 (normal cell line L-02)/IC50 (tumor cell line) [6]: 2.6 |
| COc1cc(/C=N/O)nc(-c2ccccn2)c1O [Compound 4] |  | 1.2 |  |  |  |  |  |  | CC50 at 72 h [1]: 1.7 µM; IC50 ([2]; HCT-116, 72 h): 1.4 µM |
| C[C@H]1O[C@H](Oc2cc(/C=N/O)nc(-c3ccccn3)c2)[C@H](O)[C@@H](O)[C@@H]1O [Compound 7] | 59.5 | 27.0 | 2.2 | 23.8 | 2.5 | 6.0 | 1.3 | 45.8 | IC50 ([4]; HepG2 cell line, MTT, 72 hours): 10 µM |
| COc1cc(/C=N/O)nc(-c2ccc(F)cn2)c1 [Compound 5] | 7.5 |  |  | 1.7 | 4.4 |  |  |  |  |
| CC(=O)O[C@@]12CO[C@@H]1C[C@H](O)[C@@]1(C)C(=O)[C@H](O)C3=C(C)[C@@H](OC(=O)[C@H](O)[C@@H](NC(=O)OC(C)(C)C)c4ccccc4)C[C@@](O)([C@@H](OC(=O)c4ccccc4)[C@H]21)C3(C)C [Docetaxel, reference compound] |  |  |  |  |  |  |  |  | Tumor Weight [7]: 0.13 ± 0.07 g; Inhibition Rate % (tumor inhibition rate) [7]: 87.39%; effect on body weight of the mice [8]: decreased; effect on spleen index of mice (in words) [8]: decreased; Spleen Index (100 × spleen mass/body mass) [8]: 0.25 ± 0.11 |
